Each structure is given as a SMILES string.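 Growth conditions: 96-well plates. Treatment: test compound, 48 hours, 5 concentrations. Analysis: linear interpolation between bracketing concentrations; unreached endpoints set to highest concentration. Abbreviation: GI50, concentration required for 50% inhibition of growth. TGI: total growth inhibition.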

Among the test systems are U251 CNS; SF-539 CNS; LOX IMVI melanoma; SNB-75 CNS; SK-OV-3 ovarian; OVCAR-5 ovarian; HCT-116 colon; SF-295 CNS; HL-60(TB) leukemia; UACC-62 melanoma.
Holding throughout (assay): growth of human tumour cells (NCI), 48 h

For `C/C(=N/NC(N)=S)c1ccc[nH]1`, the TGI in the experiment with U251 CNS, with SF-539 CNS, in the experiment with LOX IMVI melanoma, with SNB-75 CNS, in the experiment with SK-OV-3 ovarian and in the experiment on OVCAR-5 ovarian was more than 100 µM in each case. Further, the TGI in the experiment with HCT-116 colon, in the experiment with SF-295 CNS, in the experiment on HL-60(TB) leukemia and in the experiment with UACC-62 melanoma was more than 100 µM throughout.
For `C[C@@H]1Nc2cc(NC(=O)OCCF)nc(N)c2N=C1c1ccccc1`, the TGI was 12.2 µM in the experiment on U251 CNS; less than 0.0001 µM in the experiment on SF-539 CNS; more than 100 µM in the experiment with SNB-75 CNS; more than 100 µM with OVCAR-5 ovarian; more than 100 µM with HCT-116 colon; 20.1 µM in the experiment on SF-295 CNS. The TGI in the experiment on HL-60(TB) leukemia is less than 0.0001 µM; in the experiment on UACC-62 melanoma, more than 100 µM.
Consider `CC(=O)Nc1ccc(/C=C/c2ccc(NC(=O)Nc3ccc(/C=C/c4ccc(NC(C)=O)cc4S(=O)(=O)O)c(S(=O)(=O)O)c3)cc2S(=O)(=O)O)c(S(=O)(=O)O)c1`, for which the TGI with U251 CNS, in the experiment on SF-539 CNS, with LOX IMVI melanoma, with SNB-75 CNS, with SK-OV-3 ovarian and in the experiment with OVCAR-5 ovarian was more than 100 µM each time. For the same compound, the TGI in the experiment with HCT-116 colon, in the experiment with SF-295 CNS, with HL-60(TB) leukemia and in the experiment with UACC-62 melanoma was more than 100 µM in each case.
On to `COCc1nc2c(OC)c(-c3nc4nc(N5CCN(C)CC5)ccc4[nH]3)cc(OC)c2n1C`, for which the TGI in the experiment on U251 CNS is 61.9 µM; in the experiment on SF-539 CNS, 27.1 µM; with LOX IMVI melanoma, 39.5 µM; in the experiment on SNB-75 CNS, 64.9 µM; with SK-OV-3 ovarian, more than 100 µM; with OVCAR-5 ovarian it was more than 100 µM. For the same compound, the TGI is more than 100 µM in the experiment on HCT-116 colon, 92.9 µM with SF-295 CNS, 36.2 µM with HL-60(TB) leukemia and 41.1 µM in the experiment with UACC-62 melanoma.
As for `CCOP(=O)(OCC)C(c1ccc(F)cc1)N(C(=O)NC(F)(F)F)c1cccc(C(F)(F)F)c1` (configuration not stated), the TGI in the experiment with U251 CNS, in the experiment on SF-539 CNS, with LOX IMVI melanoma, with SNB-75 CNS, with SK-OV-3 ovarian and with OVCAR-5 ovarian was more than 100 µM in each case. In addition, the TGI in the experiment with HCT-116 colon, in the experiment with SF-295 CNS, with HL-60(TB) leukemia and with UACC-62 melanoma was more than 100 µM each time.
Regarding `CCC(C)NC1=NCC(C)S1` (configuration not stated), the TGI in the experiment with U251 CNS, in the experiment with SF-539 CNS, in the experiment with LOX IMVI melanoma, in the experiment on SNB-75 CNS, with SK-OV-3 ovarian and in the experiment with OVCAR-5 ovarian was more than 100 µM each time. In addition, the TGI in the experiment on HCT-116 colon, in the experiment with SF-295 CNS, with HL-60(TB) leukemia and in the experiment on UACC-62 melanoma was more than 100 µM in each case.
Regarding `CN=C(SC)N(C)c1nc(=[N+](C)C)ss1`, the TGI in the experiment with U251 CNS, with LOX IMVI melanoma, with SNB-75 CNS, with SK-OV-3 ovarian, with OVCAR-5 ovarian and in the experiment on HCT-116 colon was more than 100 µM throughout. For the same compound, the TGI in the experiment on SF-295 CNS, in the experiment with HL-60(TB) leukemia and in the experiment with UACC-62 melanoma was more than 100 µM each time.
As to `COc1ccccc1CNCCCN1C(=O)c2ccc3c4c(ccc(c24)C1=O)C(=O)N(CCCNCCNCCCN)C3=O`, the GI50 in the experiment on U251 CNS was 1.17 µM; in the experiment on SF-539 CNS, 2.88 µM; with LOX IMVI melanoma, 2.1 µM; in the experiment on SNB-75 CNS, 3.07 µM; with SK-OV-3 ovarian, 4.04 µM; in the experiment with OVCAR-5 ovarian, 5.24 µM. The GI50 in the experiment with HCT-116 colon was 0.717 µM; with SF-295 CNS, 2.77 µM; in the experiment on HL-60(TB) leukemia, 2.54 µM; with UACC-62 melanoma, 1.68 µM. Besides, the TGI in the experiment with U251 CNS came out at 10.1 µM; with SF-539 CNS, 9.58 µM; with LOX IMVI melanoma, 10.4 µM; in the experiment with SNB-75 CNS, 14.8 µM; with SK-OV-3 ovarian, 26.3 µM; with OVCAR-5 ovarian, 19.8 µM. For the same compound, the TGI in the experiment with HCT-116 colon was 3.04 µM; in the experiment on SF-295 CNS, 12.6 µM; with HL-60(TB) leukemia, 6.34 µM; in the experiment with UACC-62 melanoma it was 3.82 µM.
On to `CCOC(=O)Cn1c(=O)ccn(COCCO)c1=O`, for which the TGI with U251 CNS, with SF-539 CNS, in the experiment with LOX IMVI melanoma, in the experiment with SNB-75 CNS, in the experiment on OVCAR-5 ovarian and with HL-60(TB) leukemia was more than 100 µM throughout.
Consider `CC1CC2=C(S(=O)(=O)c3ccccc3)CC(S(=O)(=O)c3ccccc3)(S(=O)(=O)c3ccccc3)CC21` (configuration not stated), for which the TGI in the experiment on U251 CNS, with SF-539 CNS, in the experiment on LOX IMVI melanoma, in the experiment with SNB-75 CNS, in the experiment on SK-OV-3 ovarian and in the experiment with OVCAR-5 ovarian was more than 100 µM each time. For the same compound, the TGI with HCT-116 colon, in the experiment on SF-295 CNS, with HL-60(TB) leukemia and with UACC-62 melanoma was more than 100 µM throughout.
Regarding `COc1cc2oc(-c3ccc(O)cc3)c(OC)c(=O)c2c(O)c1OC`, the TGI with U251 CNS, in the experiment with SF-539 CNS, with SNB-75 CNS, in the experiment on SK-OV-3 ovarian, in the experiment on OVCAR-5 ovarian and in the experiment on HCT-116 colon was more than 100 µM throughout. The TGI in the experiment on SF-295 CNS and in the experiment on UACC-62 melanoma was more than 100 µM in each case. The GI50 in the experiment with SF-539 CNS is 44.1 µM; in the experiment with SNB-75 CNS it was 45.2 µM; with SK-OV-3 ovarian, 49.6 µM; with OVCAR-5 ovarian it was more than 100 µM; in the experiment with HCT-116 colon, 34.8 µM; in the experiment on SF-295 CNS, 36.1 µM. Also, the GI50 in the experiment with UACC-62 melanoma is 79.3 µM.
As to `COc1ccc(S(=O)(=O)c2ccccc2[N+](=O)[O-])cc1`, the TGI in the experiment with U251 CNS, in the experiment with SF-539 CNS, in the experiment with LOX IMVI melanoma, in the experiment with SNB-75 CNS, in the experiment on SK-OV-3 ovarian and with OVCAR-5 ovarian was more than 100 µM throughout. For the same compound, the TGI with HCT-116 colon, in the experiment with SF-295 CNS, in the experiment with HL-60(TB) leukemia and in the experiment with UACC-62 melanoma was more than 100 µM throughout.
For `CCOC(=O)c1ccc(N[C@@H]2c3cc4c(cc3C(c3cc(OC)c(O)c(OC)c3)[C@H]3C(=O)OCC32)OCO4)cc1O` (some centres not stated), the TGI is 2.69 µM in the experiment with SF-539 CNS; 0.442 µM with LOX IMVI melanoma; more than 23.2 µM in the experiment with SNB-75 CNS; 2.2 µM in the experiment with SK-OV-3 ovarian; more than 100 µM with OVCAR-5 ovarian; 8.26 µM in the experiment with HCT-116 colon. The figures for the TGI in the experiment on SF-295 CNS, with HL-60(TB) leukemia and in the experiment with UACC-62 melanoma were 2.96 µM, 5.66 µM and 2.4 µM, respectively.
`COCCCNc1nc(N)c(C#N)c(C#N)c1C#N`: the TGI with U251 CNS, with SF-539 CNS, with LOX IMVI melanoma, in the experiment with SNB-75 CNS, with SK-OV-3 ovarian and with OVCAR-5 ovarian was more than 10 µM in each case. Moreover, the TGI with HCT-116 colon, in the experiment with SF-295 CNS, in the experiment with HL-60(TB) leukemia and in the experiment with UACC-62 melanoma was more than 10 µM in each case.
For `Nc1nc([O-])c2c(n1)[n+](C1OC(CO)C(O)C1O)cn2CCO` (configuration not stated), the TGI in the experiment with U251 CNS, in the experiment with SF-539 CNS, in the experiment with LOX IMVI melanoma, with SNB-75 CNS, in the experiment with SK-OV-3 ovarian and in the experiment with OVCAR-5 ovarian was more than 100 µM throughout. Further, the TGI with HCT-116 colon, in the experiment on SF-295 CNS, in the experiment with HL-60(TB) leukemia and with UACC-62 melanoma was more than 100 µM in each case.
As for `Clc1ccc(C[P+](c2ccccc2)(c2ccccc2)c2ccccc2)c(Cl)c1`, the TGI came to 18.8 µM with U251 CNS; 15.8 µM with SF-539 CNS; 12.9 µM in the experiment on LOX IMVI melanoma; 7.54 µM in the experiment on SNB-75 CNS; 24.4 µM in the experiment with SK-OV-3 ovarian; 18.9 µM in the experiment on OVCAR-5 ovarian. Besides, the TGI in the experiment with HCT-116 colon was found to be 10.3 µM; with SF-295 CNS it was 12.3 µM; with HL-60(TB) leukemia, 3.25 µM; with UACC-62 melanoma, 12.6 µM.
On to `CCOC(=O)CNC(=O)N(CC)C12CC3CC(CC(C3)C1)C2`, for which the TGI in the experiment on U251 CNS worked out at 239 µM; in the experiment on SF-539 CNS, 251 µM; in the experiment with LOX IMVI melanoma, 252 µM; in the experiment on SNB-75 CNS, 361 µM; in the experiment with SK-OV-3 ovarian, 216 µM; in the experiment with OVCAR-5 ovarian, 369 µM. Further, the TGI with HCT-116 colon amounted to 297 µM; in the experiment with SF-295 CNS, 304 µM; in the experiment on HL-60(TB) leukemia, 314 µM; in the experiment on UACC-62 melanoma, 218 µM.
Turning to `C[Si](C)(C)OC1CC(=O)OC1n1cc(F)c(=O)[nH]c1=O` (configuration not stated), the TGI is more than 100 µM with U251 CNS; more than 100 µM in the experiment on SF-539 CNS; 32.5 µM with LOX IMVI melanoma; more than 100 µM in the experiment on SNB-75 CNS; more than 100 µM in the experiment with SK-OV-3 ovarian; more than 100 µM with OVCAR-5 ovarian. The TGI is more than 69 µM in the experiment with HCT-116 colon, more than 100 µM in the experiment on SF-295 CNS, more than 100 µM in the experiment on HL-60(TB) leukemia and more than 100 µM in the experiment with UACC-62 melanoma.
As for `CN(C)CC1CCCC(CN(C)C)C1OC(=O)c1ccccc1` (configuration not stated), the TGI in the experiment on U251 CNS, with SF-539 CNS, with LOX IMVI melanoma, in the experiment with SNB-75 CNS, with SK-OV-3 ovarian and in the experiment on OVCAR-5 ovarian was more than 100 µM each time. The TGI in the experiment on HCT-116 colon, with SF-295 CNS, with HL-60(TB) leukemia and in the experiment on UACC-62 melanoma was more than 100 µM each time.

The values are drawn from PubChem BioAssay (NCI).
